Columns and labels:
[1] = target: IRAK4 (Homo sapiens (Human), UniProt Q9NWZ3); assay: IRAK4 Inhibition Assay; format: biochemical; settings: ATP 500 μM; IRAK4 0.6 nM
Summary of the method: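 Readout: electrophoretic (LabChip) separation of fluorescent peptide substrate from phosphorylated product after EDTA quench. Reactions ran 60 min at room temperature with 0.6 nM IRAK4, 1.5 μM peptide and 500 μM ATP; inhibition referenced to no-enzyme (100%) and vehicle (0%) controls.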

[2] = test system: Human whole blood stimulated with a TLR2 agonist (lipoteichoic acid), IL-6 levels; assay: IRAK4 Whole Blood Assay; format: cell-based; settings: Homo sapiens, lipoteichoic acid 10 μg/mL
Procedure: Human whole blood containing the anti-coagulant ACD-A was plated in 384-well plate (25 μL/well) and incubated with compounds for 60 minutes at 37° C. in a 5% CO2 incubator. The blood was stimulated with a TLR2 agonist, 10 μg/mL final concentration of lipoteichoic acid (Invivogen, San Diego, Calif.) in 25 μL RPMI (Gibco) for 5 hours in a 5% CO2 incubator. At the end of the incubation, plates were centrifuged at 2300 rpm for 5 minutes. Supernatants were harvested and analyzed for IL-6 levels by Flow Cytometry beads assay (BD Biosciences, San Jose, Calif.).

IRAK4, sequence (Q9NWZ3 whole entry, species assumed): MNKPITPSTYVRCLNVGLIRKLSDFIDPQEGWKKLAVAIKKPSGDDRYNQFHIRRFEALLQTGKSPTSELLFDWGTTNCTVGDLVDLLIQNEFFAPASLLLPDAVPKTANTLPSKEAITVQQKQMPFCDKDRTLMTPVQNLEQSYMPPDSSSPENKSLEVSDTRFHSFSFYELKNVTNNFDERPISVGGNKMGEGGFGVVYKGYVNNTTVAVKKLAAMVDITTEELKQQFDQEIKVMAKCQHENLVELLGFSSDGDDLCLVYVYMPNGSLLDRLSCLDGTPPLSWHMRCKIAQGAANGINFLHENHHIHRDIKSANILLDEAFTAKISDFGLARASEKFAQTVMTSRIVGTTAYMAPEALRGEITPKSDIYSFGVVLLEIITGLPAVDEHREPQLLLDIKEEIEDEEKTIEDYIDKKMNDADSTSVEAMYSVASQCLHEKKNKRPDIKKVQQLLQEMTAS

Structure (SMILES)	IC50 [1] [nM]	EC50 [2] [nM]
CC(C)Nc1cc(-n2ncc3cc(C#N)c(N)nc32)ncc1-c1cn(C[C@H](C)O)nn1 [Example 70, (S)-6-amino-1-(5-(1-(2-hydroxypropyl)-1H-1,2,3-triazol-4-yl)-4-(isopropylamino)pyridin-2-yl)-1H-pyrazolo[3,4-b]pyridine-5-carbonitrile]	5	3960
CC(C)Nc1cc(-n2ncc3cc(C#N)cnc32)ncc1-c1cn(C[C@@H](O)c2ccccc2)nn1 [Example 84, (S)-1-(5-(1-(2-hydroxy-2-phenylethyl)-1H-1,2,3-triazol-4-yl)-4-(isopropylamino)pyridin-2-yl)-1H-pyrazolo[3,4-b]pyridine-5-carbonitrile]	5	530
CC(C)Nc1cc(-n2ncc3cc(C#N)cnc32)ncc1-c1cn([C@H](CO)c2ccccc2)nn1 [Example 87, (S)-1-(5-(1-(2-hydroxy-1-phenylethyl)-1H-1,2,3-triazol-4-yl)-4-(isopropylamino)pyridin-2-yl)-1H-pyrazolo[3,4-b]pyridine-5-carbonitrile]	9	4530
CC(C)Nc1cc(-n2ncc3cc(C#N)cnc32)ncc1-c1cn(C[C@H]2CCCN2C(=O)OC(C)(C)C)nn1 [Example 99, (R)-tert-butyl 2-((4-(6-(5-cyano-1H-pyrazolo[3,4-b]pyridin-1-yl)-4-(isopropylamino)pyridin-3-yl)-1H-1,2,3-triazol-1-yl)methyl)pyrrolidine-1-carboxylate]	8	3370
CC(C)Nc1cc(-n2ncc3cc(C#N)cnc32)ncc1-c1cn(C2CN(C(=O)OC(C)(C)C)C2)nn1 [Example 113, tert-butyl 3-(4-(6-(5-cyano-1H-pyrazolo [3,4-b]pyridin-1-yl)-4-(isopropylamino)pyridin-3-yl)-1H-1,2,3-triazol-1-yl)azetidine-1-carboxylate]	13	1860
CC(C)Nc1cc(-n2ncc3cc(C#N)cnc32)ncc1-c1cn(CCCCCN)nn1 [Example 114, 1-(5-(1-(5-aminopentyl)-1H-1,2,3-triazol-4-yl)-4-(isopropylamino)pyridin-2-yl)-1H-pyrazolo[3,4-b]pyridine-5-carbonitrile]	3	870
CC(C)Nc1cc(-n2ncc3cc(C#N)cnc32)ncc1-c1cn(CCS(C)(=O)=O)nn1 [Example 116, 1-(4-(isopropylamino)-5-(1-(2-(methylsulfonyl)ethyl)-1H-1,2,3-triazol-4-yl)pyridin-2-yl)-1H-pyrazolo[3,4-b]pyridine-5-carbonitrile]	3	210
CC(C)Nc1cc(-n2ncc3cc(C#N)cnc32)ncc1-c1cn(CCc2ccccn2)nn1 [Example 118, 1-(4-(isopropylamino)-5-(1-(2-(pyridin-2-yl)ethyl)-1H-1,2,3-triazol-4-yl)pyridin-2-yl)-1H-pyrazolo[3,4-b]pyridine-5-carbonitrile]	3	1090
COCCn1cc(-c2cnc(-n3ncc4cc(C#N)cnc43)cc2NC(C)C)nn1 [Example 121, 1-(4-(isopropylamino)-5-(1-(2-methoxyethyl)-1H-1,2,3-triazol-4-yl)pyridin-2-yl)-1H-pyrazolo[3,4-b]pyridine-5-carbonitrile]	6	1740
CC(C)Nc1cc(-n2ncc3cc(C#N)cnc32)ncc1-c1cn(CCN(C)C)nn1 [Example 126, 1-(5-(1-(2-(dimethylamino)ethyl)-1H-1,2,3-triazol-4-yl)-4-(isopropylamino)pyridin-2-yl)-1H-pyrazolo[3,4-b]pyridine-5-carbonitrile]	4	390
CC(C)Nc1cc(-n2ncc3cc(C#N)cnc32)ncc1-c1cn(CCCN2CCCC2)nn1 [Example 127, 1-(4-(isopropylamino)-5-(1-(3-(pyrrolidin-1-yl)propyl)-1H-1,2,3-triazol-4-yl)pyridin-2-yl)-1H-pyrazolo[3,4-b]pyridine-5-carbonitrile]	10	2950
CC(C)Nc1cc(-n2ncc3cc(C#N)cnc32)ncc1-c1cn(CC(O)C(F)(F)F)nn1 (stereo not shown) [Example 129, 1-(4-(isopropylamino)-5-(1-(3,3,3-trifluoro-2-hydroxypropyl)-1H-1,2,3-triazol-4-yl)pyridin-2-yl)-1H-pyrazolo[3,4-b]pyridine-5-carbonitrile]	7	830
CC(C)Nc1cc(-n2ncc3cc(C#N)cnc32)ncc1-c1cn(CCCc2ccccc2)nn1 [Example 130, 1-(4-(isopropylamino)-5-(1-(3-phenylpropyl)-1H-1,2,3-triazol-4-yl)pyridin-2-yl)-1H-pyrazolo[3,4-b]pyridine-5-carbonitrile]	5	10700
COCC(O)Cn1cc(-c2cnc(-n3ncc4cc(C#N)cnc43)cc2NC(C)C)nn1 (stereo not shown) [Example 133, 1-(5-(1-(2-hydroxy-3-methoxypropyl)-1H-1,2,3-triazol-4-yl)-4-(isopropylamino)pyridin-2-yl)-1H-pyrazolo[3,4-b]pyridine-5-carbonitrile]	10	980
CC[C@H](O)Cn1cc(-c2cnc(-n3ncc4cc(C#N)cnc43)cc2NC(C)C)nn1 [Example 134, (S)-1-(5-(1-(2-hydroxybutyl)-1H-1,2,3-triazol-4-yl)-4-(isopropylamino)pyridin-2-yl)-1H-pyrazolo[3,4-b]pyridine-5-carbonitrile]	6	550
CC(C)Nc1cc(-n2ncc3cc(C#N)cnc32)ncc1-c1cn(CC(O)C(C)C)nn1 (stereo not shown) [Example 135, 1-(5-(1-(2-hydroxy-3-methylbutyl)-1H-1,2,3-triazol-4-yl)-4-(isopropylamino)pyridin-2-yl)-1H-pyrazolo[3,4-b]pyridine-5-carbonitrile]	4	1190
CC(C)Nc1cc(-n2ncc3cc(C#N)cnc32)ncc1-c1cn(C2CN(C(=O)CC3CC3)C2)nn1 [Example 139, 1-(5-(1-(1-(2-cyclopropylacetyl)azetidin-3-yl)-1H-1,2,3-triazol-4-yl)-4-(isopropylamino)pyridin-2-yl)-1H-pyrazolo[3,4-b]pyridine-5-carbonitrile]	4	1090
CC(C)Nc1cc(-n2ncc3cc(C#N)cnc32)ncc1-c1cn(C2CN(C#N)C2)nn1 [Example 141, 1-(5-(1-(1-cyanoazetidin-3-yl)-1H-1,2,3-triazol-4-yl)-4-(isopropylamino)pyridin-2-yl)-1H-pyrazolo[3,4-b]pyridine-5-carbonitrile]	8	960

More lines, in order of falling IC50 [1], values ahead:

IC50 [1] [nM]	EC50 [2] [nM]	Structure (SMILES)
18	1770	CC(C)Nc1cc(-n2ncc3cc(C#N)cnc32)ncc1-c1cn([C@@H](CO)c2ccccc2)nn1 [Example 86, (R)-1-(5-(1-(2-hydroxy-1-phenylethyl)-1H-1,2,3-triazol-4-yl)-4-(isopropylamino)pyridin-2-yl)-1H-pyrazolo[3,4-b]pyridine-5-carbonitrile]
12	1080	CC(C)Nc1cc(-n2ncc3cc(C#N)cnc32)ncc1-c1cn(CC(O)CO)nn1 (stereo not shown) [Example 131, 1-(5-(1-(2,3-dihydroxypropyl)-1H-1,2,3-triazol-4-yl)-4-(isopropylamino)pyridin-2-yl)-1H-pyrazolo[3,4-b]pyridine-5-carbonitrile]
8	1690	CCOCC(O)Cn1cc(-c2cnc(-n3ncc4cc(C#N)cnc43)cc2NC(C)C)nn1 (stereo not shown) [Example 137, 1-(5-(1-(3-ethoxy-2-hydroxypropyl)-1H-1,2,3-triazol-4-yl)-4-(isopropylamino)pyridin-2-yl)-1H-pyrazolo[3,4-b]pyridine-5-carbonitrile]
8	970	CC(C)Nc1cc(-n2ncc3cc(C#N)cnc32)ncc1-c1cn(C2CN(C(=O)c3ccccc3)C2)nn1 [Example 143, 1-(5-(1-(1-benzoylazetidin-3-yl)-1H-1,2,3-triazol-4-yl)-4-(isopropylamino)pyridin-2-yl)-1H-pyrazolo[3,4-b]pyridine-5-carbonitrile]
5	560	COC(=O)N1CC(n2cc(-c3cnc(-n4ncc5cc(C#N)cnc54)cc3NC(C)C)nn2)C1 [Example 142, methyl 3-(4-(6-(5-cyano-1H-pyrazolo[3,4-b]pyridin-1-yl)-4-(isopropylamino)pyridin-3-yl)-1H-1,2,3-triazol-1-yl)azetidine-1-carboxylate]
4	490	CC(C)Nc1cc(-n2ncc3cc(C#N)cnc32)ncc1-c1cn(C2CN(C(=O)C(C)C)C2)nn1 [Example 144, 1-(5-(1-(1-isobutyrylazetidin-3-yl)-1H-1,2,3-triazol-4-yl)-4-(isopropylamino)pyridin-2-yl)-1H-pyrazolo[3,4-b]pyridine-5-carbonitrile]
4	740	CC(C)Nc1cc(-n2ncc3cc(C#N)cnc32)ncc1-c1cn(C2CN(C(=O)C3CC3)C2)nn1 [Example 145, 1-(5-(1-(1-(cyclopropanecarbonyl)azetidin-3-yl)-1H-1,2,3-triazol-4-yl)-4-(isopropylamino)pyridin-2-yl)-1H-pyrazolo[3,4-b]pyridine-5-carbonitrile]
3	1760	CC(C)Nc1cc(-n2ncc3cc(C#N)cnc32)ncc1-c1cn(CCCCCO)nn1 [Example 125, 1-(5-(1-(5-hydroxypentyl)-1H-1,2,3-triazol-4-yl)-4-(isopropylamino)pyridin-2-yl)-1H-pyrazolo[3,4-b]pyridine-5-carbonitrile]

Source: patent publication US10294229B2, “Heteroaryl substituted aminopyridine compounds” (BRISTOL-MYERS SQUIBB COMPANY, priority 2015, dated 2019)
